Tests used:
Experiment in all cases: Dundee kinase panel
Format in all cases: biochemical
Settings in all cases: for remaining activity at 1 µM: read-out: residual activity
CDK9-Cyclin T1 = target: T1, CDK9-Cyclin T1 (Homo sapiens, UniProt P50750)
T1 construct: lines 1-140) and Reaction Biology
Protocol: (§1) Compounds were screened at 1 μM. For key hits, pIC50 values were then determined by HTRF as above. […] Stability in mouse and human liver microsomes was determined by Cyprotex.

CSK = target: T2, CSK (Homo sapiens, UniProt P41240)
T2 construct: lines 1-140) and Reaction Biology
T2 sequence (P41240 whole entry): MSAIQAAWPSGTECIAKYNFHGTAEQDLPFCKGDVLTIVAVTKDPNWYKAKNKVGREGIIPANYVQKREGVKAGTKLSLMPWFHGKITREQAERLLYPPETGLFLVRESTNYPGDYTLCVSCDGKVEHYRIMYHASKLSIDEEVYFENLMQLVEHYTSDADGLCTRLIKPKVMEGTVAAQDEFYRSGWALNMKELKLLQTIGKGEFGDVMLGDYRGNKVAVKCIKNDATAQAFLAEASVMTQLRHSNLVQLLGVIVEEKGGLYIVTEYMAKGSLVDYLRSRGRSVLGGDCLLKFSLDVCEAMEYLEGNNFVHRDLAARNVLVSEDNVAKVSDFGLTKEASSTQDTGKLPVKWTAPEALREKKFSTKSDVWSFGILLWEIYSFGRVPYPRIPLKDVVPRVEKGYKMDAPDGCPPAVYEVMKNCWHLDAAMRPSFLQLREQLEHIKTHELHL
Protocol: as §1

DYRK2 = target: T3, DYRK2 (Homo sapiens, UniProt Q92630)
T3 construct: lines 1-140) and Reaction Biology
T3 sequence (Q92630 1-601): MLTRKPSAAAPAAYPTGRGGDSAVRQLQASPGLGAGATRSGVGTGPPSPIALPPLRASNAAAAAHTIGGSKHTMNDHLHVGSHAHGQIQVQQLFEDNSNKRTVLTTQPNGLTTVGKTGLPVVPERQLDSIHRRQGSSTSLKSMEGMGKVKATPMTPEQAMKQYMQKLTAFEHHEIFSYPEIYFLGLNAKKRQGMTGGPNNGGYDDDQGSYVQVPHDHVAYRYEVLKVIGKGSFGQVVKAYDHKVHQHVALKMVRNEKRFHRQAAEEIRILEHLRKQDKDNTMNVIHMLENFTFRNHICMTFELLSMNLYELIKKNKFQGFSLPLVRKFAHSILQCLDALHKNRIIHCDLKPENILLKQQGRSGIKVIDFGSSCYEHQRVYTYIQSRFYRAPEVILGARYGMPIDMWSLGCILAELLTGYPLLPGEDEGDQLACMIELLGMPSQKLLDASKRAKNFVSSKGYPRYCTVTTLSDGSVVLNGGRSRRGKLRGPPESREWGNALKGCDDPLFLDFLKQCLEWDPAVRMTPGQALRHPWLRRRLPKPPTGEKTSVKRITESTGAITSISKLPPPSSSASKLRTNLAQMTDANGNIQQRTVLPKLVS
Protocol: as §1

EPH-A4 = target: T4, EPH-A4 (Homo sapiens, UniProt P54764)
T4 construct: lines 1-140) and Reaction Biology
T4 sequence (P54764 20-986): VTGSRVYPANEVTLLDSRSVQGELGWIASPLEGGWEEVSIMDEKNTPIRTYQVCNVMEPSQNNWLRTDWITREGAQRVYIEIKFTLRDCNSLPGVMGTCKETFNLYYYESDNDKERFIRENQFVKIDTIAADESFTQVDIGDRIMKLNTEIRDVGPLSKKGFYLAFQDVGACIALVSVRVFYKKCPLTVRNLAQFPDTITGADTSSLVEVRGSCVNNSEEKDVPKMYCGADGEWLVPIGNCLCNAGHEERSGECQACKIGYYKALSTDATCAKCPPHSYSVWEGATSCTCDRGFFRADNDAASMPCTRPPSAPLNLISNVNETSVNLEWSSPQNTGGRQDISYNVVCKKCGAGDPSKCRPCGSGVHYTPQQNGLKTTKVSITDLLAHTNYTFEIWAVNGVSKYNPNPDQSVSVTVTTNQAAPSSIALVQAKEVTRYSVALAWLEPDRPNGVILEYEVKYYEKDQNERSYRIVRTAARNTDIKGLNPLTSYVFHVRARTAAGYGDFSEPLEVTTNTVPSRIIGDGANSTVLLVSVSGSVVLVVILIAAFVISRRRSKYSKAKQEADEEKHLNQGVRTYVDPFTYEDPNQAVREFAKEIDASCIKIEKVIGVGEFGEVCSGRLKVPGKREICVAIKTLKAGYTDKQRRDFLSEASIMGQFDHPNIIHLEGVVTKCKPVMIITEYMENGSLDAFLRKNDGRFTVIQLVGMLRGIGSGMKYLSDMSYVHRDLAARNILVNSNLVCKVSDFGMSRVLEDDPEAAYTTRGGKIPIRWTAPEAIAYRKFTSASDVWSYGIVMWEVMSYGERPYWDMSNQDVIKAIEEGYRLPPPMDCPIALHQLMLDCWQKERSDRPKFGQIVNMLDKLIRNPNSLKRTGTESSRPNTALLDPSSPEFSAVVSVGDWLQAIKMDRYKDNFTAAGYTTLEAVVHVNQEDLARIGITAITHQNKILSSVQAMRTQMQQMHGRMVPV
Protocol: as §1

IRAK1 = target: T5, IRAK1 (Homo sapiens, UniProt P51617)
T5 construct: lines 1-140) and Reaction Biology
Protocol: as §1

MARK4 = target: T6, MARK4 (Homo sapiens, UniProt Q96L34)
T6 construct: lines 1-140) and Reaction Biology
T6 sequence (Q96L34 1-752): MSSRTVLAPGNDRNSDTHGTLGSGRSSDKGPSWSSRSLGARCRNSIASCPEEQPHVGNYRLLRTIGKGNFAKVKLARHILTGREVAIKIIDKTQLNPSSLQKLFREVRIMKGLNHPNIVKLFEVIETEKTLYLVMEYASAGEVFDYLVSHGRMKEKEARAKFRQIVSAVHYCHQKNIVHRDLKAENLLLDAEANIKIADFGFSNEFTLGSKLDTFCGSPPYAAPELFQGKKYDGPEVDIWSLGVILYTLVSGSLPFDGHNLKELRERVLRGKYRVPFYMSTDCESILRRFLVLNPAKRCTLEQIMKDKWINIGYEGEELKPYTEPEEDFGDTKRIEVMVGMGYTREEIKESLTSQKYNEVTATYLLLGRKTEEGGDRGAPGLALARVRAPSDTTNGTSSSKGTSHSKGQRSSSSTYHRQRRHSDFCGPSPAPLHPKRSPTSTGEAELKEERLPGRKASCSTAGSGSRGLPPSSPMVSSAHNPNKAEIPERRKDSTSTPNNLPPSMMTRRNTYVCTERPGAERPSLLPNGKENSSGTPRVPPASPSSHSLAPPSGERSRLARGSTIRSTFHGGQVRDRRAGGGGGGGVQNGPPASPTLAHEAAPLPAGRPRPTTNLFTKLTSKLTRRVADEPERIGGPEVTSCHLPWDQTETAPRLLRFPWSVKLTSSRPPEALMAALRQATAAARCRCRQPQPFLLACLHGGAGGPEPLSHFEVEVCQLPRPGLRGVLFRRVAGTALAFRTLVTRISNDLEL
Protocol: as §1

MLK3 = target: T7, MLK3 (Homo sapiens, UniProt Q16584)
T7 construct: lines 1-140) and Reaction Biology
Protocol: as §1

MNK1 = target: T8, MNK1 (Homo sapiens, UniProt Q9BUB5)
T8 construct: lines 1-140) and Reaction Biology
T8 sequence (Q9BUB5 whole entry): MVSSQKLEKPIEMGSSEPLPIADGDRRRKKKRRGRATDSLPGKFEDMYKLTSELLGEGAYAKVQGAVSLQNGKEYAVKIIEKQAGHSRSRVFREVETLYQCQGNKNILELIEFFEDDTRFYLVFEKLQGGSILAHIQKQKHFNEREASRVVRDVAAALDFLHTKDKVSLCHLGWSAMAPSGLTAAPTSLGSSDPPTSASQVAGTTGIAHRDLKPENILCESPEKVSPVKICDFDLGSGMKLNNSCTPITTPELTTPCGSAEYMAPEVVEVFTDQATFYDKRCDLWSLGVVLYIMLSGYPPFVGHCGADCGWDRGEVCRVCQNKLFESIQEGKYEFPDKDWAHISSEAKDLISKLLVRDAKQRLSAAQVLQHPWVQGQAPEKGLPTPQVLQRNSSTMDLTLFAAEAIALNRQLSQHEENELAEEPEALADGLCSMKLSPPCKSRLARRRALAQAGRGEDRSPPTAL
Protocol: as §1

MNK2 = target: T9, MNK2 (Homo sapiens, UniProt Q9HBH9)
T9 construct: lines 1-140) and Reaction Biology
T9 sequence (Q9HBH9 whole entry): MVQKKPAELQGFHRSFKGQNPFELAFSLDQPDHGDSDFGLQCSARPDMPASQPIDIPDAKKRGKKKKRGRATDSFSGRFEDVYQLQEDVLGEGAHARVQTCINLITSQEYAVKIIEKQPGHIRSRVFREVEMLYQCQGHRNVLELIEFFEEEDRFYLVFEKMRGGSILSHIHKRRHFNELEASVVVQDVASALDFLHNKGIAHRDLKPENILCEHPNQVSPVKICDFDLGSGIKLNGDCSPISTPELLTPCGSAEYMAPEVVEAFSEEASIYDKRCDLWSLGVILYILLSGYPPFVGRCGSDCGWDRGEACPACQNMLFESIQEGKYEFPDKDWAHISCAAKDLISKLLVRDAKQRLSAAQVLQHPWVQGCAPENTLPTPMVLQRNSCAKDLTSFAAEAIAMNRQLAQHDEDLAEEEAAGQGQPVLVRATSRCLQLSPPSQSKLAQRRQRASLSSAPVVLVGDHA
Protocol: as §1

NEK2a = target: T10, NEK2a (Homo sapiens, UniProt P51955)
T10 construct: lines 1-140) and Reaction Biology
T10 sequence (P51955 1-445): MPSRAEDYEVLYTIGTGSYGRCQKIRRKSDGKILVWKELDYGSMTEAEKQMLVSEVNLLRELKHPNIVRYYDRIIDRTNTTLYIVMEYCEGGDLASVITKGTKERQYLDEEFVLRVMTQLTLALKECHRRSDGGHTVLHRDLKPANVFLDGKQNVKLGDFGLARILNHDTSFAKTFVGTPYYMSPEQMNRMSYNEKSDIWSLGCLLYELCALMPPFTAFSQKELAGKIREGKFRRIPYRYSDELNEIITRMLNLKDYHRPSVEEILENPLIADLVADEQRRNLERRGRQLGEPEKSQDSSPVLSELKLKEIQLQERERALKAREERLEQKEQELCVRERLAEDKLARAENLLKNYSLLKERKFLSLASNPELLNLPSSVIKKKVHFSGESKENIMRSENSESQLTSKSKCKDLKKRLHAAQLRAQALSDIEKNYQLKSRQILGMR
Protocol: as §1

PAK5 = target: T11, PAK5 (Homo sapiens, UniProt Q9P286)
T11 construct: lines 1-140) and Reaction Biology
T11 sequence (Q9P286 whole entry): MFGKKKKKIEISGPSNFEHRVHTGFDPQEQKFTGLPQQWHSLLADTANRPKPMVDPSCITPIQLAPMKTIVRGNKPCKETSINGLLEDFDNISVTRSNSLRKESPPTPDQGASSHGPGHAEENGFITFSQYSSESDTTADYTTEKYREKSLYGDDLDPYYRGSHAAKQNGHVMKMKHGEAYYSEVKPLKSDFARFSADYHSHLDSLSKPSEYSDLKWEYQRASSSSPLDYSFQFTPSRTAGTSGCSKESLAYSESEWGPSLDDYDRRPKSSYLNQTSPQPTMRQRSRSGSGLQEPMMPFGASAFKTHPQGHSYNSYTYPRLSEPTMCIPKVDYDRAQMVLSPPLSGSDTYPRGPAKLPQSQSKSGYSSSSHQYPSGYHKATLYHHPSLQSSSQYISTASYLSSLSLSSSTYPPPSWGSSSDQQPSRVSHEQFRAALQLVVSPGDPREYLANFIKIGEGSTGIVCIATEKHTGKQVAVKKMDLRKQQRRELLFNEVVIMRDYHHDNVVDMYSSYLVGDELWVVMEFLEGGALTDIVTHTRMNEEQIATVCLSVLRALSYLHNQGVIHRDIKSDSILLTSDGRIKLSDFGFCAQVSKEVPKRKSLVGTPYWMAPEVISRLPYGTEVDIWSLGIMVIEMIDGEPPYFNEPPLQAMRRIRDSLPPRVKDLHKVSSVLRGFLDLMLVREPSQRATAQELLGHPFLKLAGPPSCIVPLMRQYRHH
Protocol: as §1

PIM2 = target: T12, PIM2 (Homo sapiens, UniProt Q9P1W9)
T12 construct: lines 1-140) and Reaction Biology
T12 sequence (Q9P1W9 whole entry): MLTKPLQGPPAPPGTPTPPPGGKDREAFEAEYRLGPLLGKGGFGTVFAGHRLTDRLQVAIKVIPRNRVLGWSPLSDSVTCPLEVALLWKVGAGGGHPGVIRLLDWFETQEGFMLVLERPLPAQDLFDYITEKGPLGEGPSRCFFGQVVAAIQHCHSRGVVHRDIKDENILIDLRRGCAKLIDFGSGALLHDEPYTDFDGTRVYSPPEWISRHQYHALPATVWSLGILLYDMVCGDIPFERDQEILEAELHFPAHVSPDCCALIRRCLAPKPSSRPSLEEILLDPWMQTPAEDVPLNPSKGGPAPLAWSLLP
Protocol: as §1

PKBb = target: T13, PKBb (Homo sapiens, UniProt P31751)
T13 construct: lines 1-140) and Reaction Biology
T13 sequence (P31751 whole entry): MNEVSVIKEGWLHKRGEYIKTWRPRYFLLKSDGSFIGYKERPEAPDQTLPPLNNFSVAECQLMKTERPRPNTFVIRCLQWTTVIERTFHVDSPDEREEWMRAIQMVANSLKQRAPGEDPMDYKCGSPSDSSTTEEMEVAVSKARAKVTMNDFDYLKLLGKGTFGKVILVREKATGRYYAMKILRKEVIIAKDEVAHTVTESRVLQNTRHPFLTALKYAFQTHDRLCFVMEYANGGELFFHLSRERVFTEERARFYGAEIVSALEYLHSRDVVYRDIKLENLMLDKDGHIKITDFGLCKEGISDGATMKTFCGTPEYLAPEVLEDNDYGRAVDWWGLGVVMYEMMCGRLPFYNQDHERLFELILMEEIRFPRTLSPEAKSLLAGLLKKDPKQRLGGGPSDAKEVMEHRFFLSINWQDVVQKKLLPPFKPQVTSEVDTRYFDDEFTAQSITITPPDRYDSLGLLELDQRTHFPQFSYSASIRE
Protocol: as §1

p38g MAPK = target: T14, p38g MAPK (Homo sapiens, UniProt P53778)
T14 construct: lines 1-140) and Reaction Biology
T14 sequence (P53778 1-367): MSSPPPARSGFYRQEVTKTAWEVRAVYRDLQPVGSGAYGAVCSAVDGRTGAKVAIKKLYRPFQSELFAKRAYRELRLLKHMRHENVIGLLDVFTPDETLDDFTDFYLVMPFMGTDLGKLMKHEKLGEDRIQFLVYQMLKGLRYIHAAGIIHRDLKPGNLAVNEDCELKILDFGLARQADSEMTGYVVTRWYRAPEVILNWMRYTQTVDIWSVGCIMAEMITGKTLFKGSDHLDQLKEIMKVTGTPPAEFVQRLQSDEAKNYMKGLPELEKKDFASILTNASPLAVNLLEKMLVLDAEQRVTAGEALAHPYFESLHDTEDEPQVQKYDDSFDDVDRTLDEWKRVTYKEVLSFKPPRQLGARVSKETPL
Protocol: as §1

T1 sequence (P50750 whole entry): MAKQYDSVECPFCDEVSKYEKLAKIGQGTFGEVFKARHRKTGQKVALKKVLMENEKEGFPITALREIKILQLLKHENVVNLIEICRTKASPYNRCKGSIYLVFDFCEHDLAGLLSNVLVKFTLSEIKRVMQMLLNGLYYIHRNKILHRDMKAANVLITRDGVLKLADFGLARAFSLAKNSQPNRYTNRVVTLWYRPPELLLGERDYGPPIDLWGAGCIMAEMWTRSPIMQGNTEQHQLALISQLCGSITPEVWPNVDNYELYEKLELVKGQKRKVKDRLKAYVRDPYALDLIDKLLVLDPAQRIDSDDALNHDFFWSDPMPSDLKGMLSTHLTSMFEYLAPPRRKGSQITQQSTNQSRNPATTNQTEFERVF
T1 sequence (O60563 whole entry partner): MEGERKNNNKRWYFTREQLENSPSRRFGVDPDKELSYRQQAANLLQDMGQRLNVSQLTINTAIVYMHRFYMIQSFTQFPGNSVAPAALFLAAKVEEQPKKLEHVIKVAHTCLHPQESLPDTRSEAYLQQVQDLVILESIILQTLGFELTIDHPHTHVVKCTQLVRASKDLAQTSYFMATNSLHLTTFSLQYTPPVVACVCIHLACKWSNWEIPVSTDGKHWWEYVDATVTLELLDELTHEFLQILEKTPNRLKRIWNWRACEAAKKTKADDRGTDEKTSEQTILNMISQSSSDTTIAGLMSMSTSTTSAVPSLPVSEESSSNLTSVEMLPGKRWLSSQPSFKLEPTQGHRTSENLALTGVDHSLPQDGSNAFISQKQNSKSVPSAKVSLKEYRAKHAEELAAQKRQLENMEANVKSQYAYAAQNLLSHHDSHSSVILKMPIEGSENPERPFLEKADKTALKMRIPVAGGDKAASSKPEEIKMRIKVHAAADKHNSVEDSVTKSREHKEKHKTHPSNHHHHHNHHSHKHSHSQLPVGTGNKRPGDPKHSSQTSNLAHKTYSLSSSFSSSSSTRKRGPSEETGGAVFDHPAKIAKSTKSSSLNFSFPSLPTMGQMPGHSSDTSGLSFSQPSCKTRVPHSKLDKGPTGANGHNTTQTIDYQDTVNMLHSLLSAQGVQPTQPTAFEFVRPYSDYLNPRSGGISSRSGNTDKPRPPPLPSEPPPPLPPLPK

O=C1Cc2c([nH]c3ccc(Br)cc23)-c2ccccc2N1 [Kenpaullone]
remaining activity at 1 µM (CDK9-Cyclin T1): 22% | remaining activity at 1 µM (CSK): 68% | remaining activity at 1 µM (DYRK2): 91% | remaining activity at 1 µM (EPH-A4): 96% | remaining activity at 1 µM (IRAK1): 39% | remaining activity at 1 µM (MARK4): 39% | remaining activity at 1 µM (MLK3): 21% | remaining activity at 1 µM (MNK1): 91% | remaining activity at 1 µM (MNK2): 125% | remaining activity at 1 µM (NEK2a): 89% | remaining activity at 1 µM (PAK5): 12% | remaining activity at 1 µM (PIM2): 67% | remaining activity at 1 µM (PKBb): 106% | remaining activity at 1 µM (p38g MAPK): 100%

O=C1Nc2ccc(I)cc2/C1=C/c1cc(Br)c(O)c(Br)c1 [GW5074]
remaining activity at 1 µM (CDK9-Cyclin T1): 104% | remaining activity at 1 µM (CSK): 52% | remaining activity at 1 µM (DYRK2): 13% | remaining activity at 1 µM (EPH-A4): 91% | remaining activity at 1 µM (IRAK1): 57% | remaining activity at 1 µM (MARK4): 50% | remaining activity at 1 µM (MLK3): 17% | remaining activity at 1 µM (MNK1): 82% | remaining activity at 1 µM (MNK2): 95% | remaining activity at 1 µM (NEK2a): 8% | remaining activity at 1 µM (PAK5): 77% | remaining activity at 1 µM (PIM2): 10% | remaining activity at 1 µM (PKBb): 69% | remaining activity at 1 µM (p38g MAPK): 114%

Nc1ncc(C(=O)NC2CN(C(=O)C3CC3)C2)c2ccc(-c3cccc(F)c3)nc12 [GNE-495]
residual activity (CDK9-Cyclin T1; 1 μM): 78% | residual activity (CSK; 1 μM): 94% | residual activity (DYRK2; 1 μM): 55% | residual activity (EPH-A4; 1 μM): 72% | residual activity (IRAK1; 1 μM): 113% | residual activity (MARK4; 1 μM): 51% | residual activity (MLK3; 1 μM): 38% | residual activity (MNK1; 1 μM): 53% | residual activity (MNK2; 1 μM): 64% | residual activity (NEK2a; 1 μM): 85% | residual activity (PAK5; 1 μM): 55% | residual activity (PIM2; 1 μM): 95% | residual activity (PKBb; 1 μM): 99% | residual activity (p38g MAPK; 1 μM): 93%

Oc1ncnc2c1c(-c1ccccc1)cn2-c1ccccc1 [F1386-0303, 5,7-diphenyl-7H-pyrrolo[2,3-d]pyrimidin-4-ol]
remaining activity at 1 µM (CDK9-Cyclin T1): 88% | remaining activity at 1 µM (CSK): 97% | remaining activity at 1 µM (DYRK2): 93% | remaining activity at 1 µM (EPH-A4): 92% | remaining activity at 1 µM (IRAK1): 107% | remaining activity at 1 µM (MARK4): 96% | remaining activity at 1 µM (MLK3): 30% | remaining activity at 1 µM (MNK1): 102% | remaining activity at 1 µM (MNK2): 109% | remaining activity at 1 µM (NEK2a): 108% | remaining activity at 1 µM (PAK5): 105% | remaining activity at 1 µM (PIM2): 84% | remaining activity at 1 µM (PKBb): 95% | remaining activity at 1 µM (p38g MAPK): 109%

COCCOc1ccc(-c2cn(-c3ccccc3)c3nc[nH]c(=O)c23)cc1 [DMX-5804, 5-[4-(2-methoxy-ethoxy)-phenyl]-7-phenyl-3,7-dihydro-pyrrolo[2,3-d]pyrimidin-4-one]
remaining activity at 1 µM (CDK9-Cyclin T1): 113% | remaining activity at 1 µM (CSK): 103% | remaining activity at 1 µM (DYRK2): 115% | remaining activity at 1 µM (EPH-A4): 105% | remaining activity at 1 µM (IRAK1): 100% | remaining activity at 1 µM (MARK4): 99% | remaining activity at 1 µM (MLK3): 12% | remaining activity at 1 µM (MNK1): 90% | remaining activity at 1 µM (MNK2): 111% | remaining activity at 1 µM (NEK2a): 106% | remaining activity at 1 µM (PAK5): 105% | remaining activity at 1 µM (PIM2): 105% | remaining activity at 1 µM (PKBb): 116% | remaining activity at 1 µM (p38g MAPK): 117%

Reference: PMC6458995, “MAP4K4 Inhibition Promotes Survival of Human Stem Cell-Derived Cardiomyocytes and Reduces Infarct Size In Vivo” (Cell Stem Cell, 2019)
